Here are results for 35 molecules from patent US10544103B2, “5-HT2 antagonists” (ANAMAR AB, priority 2015, dated 2020).

The structures appear in SMILES notation.

The target of the test is T1, 5-HT2B receptor (Homo sapiens, UniProt P41595).
T1 construct: host or cells: CHO-K1
The test is described as follows: 5-HT2B receptor binding, 3H-LSD ligand displacement assay. The settings on record: for inhibition at 0.01 µM: 0.01 uM compound; for inhibition at 0.1 µM: 0.1 uM compound; for inhibition at 1 µM: 1 uM compound; for inhibition at 10 µM: 10 uM compound; for inhibition at 0.001 µM: 0.001 uM compound. As to the method: 5-HT2B receptor binding (performed at Eurofins Panlabs Taiwan, Ltd.) to human receptor protein expressed in CHO-K1 cells was determined in a ligand displacement assay using ^3H-lysergic acid diethylamide (LSD) as radioligand and ketanserine as a standard reference compound. Data is presented as % displacement of radioligand at indicated compound concentrations, see Table 1 and Table 2.

T1 sequence (P41595 whole entry): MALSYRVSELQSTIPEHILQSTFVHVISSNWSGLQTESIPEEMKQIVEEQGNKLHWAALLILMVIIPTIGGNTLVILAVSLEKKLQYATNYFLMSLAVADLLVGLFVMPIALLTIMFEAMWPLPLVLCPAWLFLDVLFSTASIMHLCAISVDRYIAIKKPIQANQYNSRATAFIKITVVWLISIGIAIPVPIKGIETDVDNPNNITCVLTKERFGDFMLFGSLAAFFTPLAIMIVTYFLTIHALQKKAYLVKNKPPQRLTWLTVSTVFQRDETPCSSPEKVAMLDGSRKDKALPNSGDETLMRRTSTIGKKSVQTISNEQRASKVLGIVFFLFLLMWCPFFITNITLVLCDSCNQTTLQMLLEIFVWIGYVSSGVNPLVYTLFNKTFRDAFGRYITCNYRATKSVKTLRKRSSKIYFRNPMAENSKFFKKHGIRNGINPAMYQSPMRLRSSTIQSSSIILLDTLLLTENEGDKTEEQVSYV

In the case of `C[C@H]1CN(C(=N)N)N=C1c1ccccc1O` (single isomer, unassigned) [Example 37], the inhibition at 0.01 µM is -1%, the inhibition at 0.1 µM stood at 35%, the inhibition at 1 µM was found to be 72% and the inhibition at 10 µM was found to be 99%.
For `C[C@H]1CN(C(=N)N)N=C1c1cccc(Cl)c1O` (single isomer, unassigned) [Example 72, (S)*-3-(3-chloro-2-hydroxyphenyl)-4-methyl-4,5-dihydro-1H-pyrazole-1-carboximidamide], the inhibition at 0.001 µM is -1%, the inhibition at 0.01 µM amounted to 21% and the inhibition at 0.1 µM was 69%.
For `C[C@H]1CN(C(=N)NCc2ccccc2)N=C1c1cccc(Cl)c1O` (single isomer, unassigned) [Example 77, (S)*—N-Benzyl-3-(3-chloro-2-hydroxyphenyl)-4-methyl-4,5-dihydro-1H-pyrazole-1-carboximidamide], in that order: 2%, 28% and 88%.
As to `N=C(N)N1CCC(c2ccccc2Br)=N1` [Example 4, 3-(2-Bromophenyl)-4,5-dihydro-1H-pyrazole-1-carboximidamide], the inhibition at 1 µM was found to be 89% and the inhibition at 10 µM stood at 101%.
For `N=C(N)N1CCC(c2ccccc2Cl)=N1` [Example 5, 3-(2-Chlorophenyl)-4,5-dihydro-1H-pyrazole-1-carboximidamide], in that order: 95% and 100%.
With `Cc1ccccc1C1=NN(C(=N)N)CC1` [Example 6, 3-(2-Methylphenyl)-4,5-dihydro-1H-pyrazole-1-carboximidamide], the inhibition at 1 µM was 89% and the inhibition at 10 µM amounted to 99%.
On the same counts, the results for `N=C(N)N1CCC(c2cc(F)ccc2F)=N1` [Example 7, 3-(2,5-Difluorophenyl)-4,5-dihydro-1H-pyrazole-1-carboximidamide] are 47% and 94%.
For the molecule `CC(C)c1ccccc1C1=NN(C(=N)N)CC1` [Example 8, 3-(2-Isopropylphenyl)-4,5-dihydro-1H-pyrazole-1-carboximidamide], the inhibition at 0.1 µM turned out to be 80% and the inhibition at 1 µM stood at 95%.
For `N=C(N)N1CCC(c2cccc3ccsc23)=N1` [Example 10, 3-(Benzo[b]thiophen-7-yl)-4,5-dihydro-1H-pyrazole-1-carboximidamide], the inhibition at 0.1 µM amounted to 75% and the inhibition at 1 µM turned out to be 95%.
On the same counts, the results for `N=C(N)N1CCC(c2ccccc2F)=N1` [Example 11, 3-(2-Fluorophenyl)-4,5-dihydro-1H-pyrazole-1-carboximidamide] are 10% and 53%.
For `N=C(N)N1CCC(c2ccc3ccccc3c2)=N1` [Example 12, 3-(Naphthalen-2-yl)-4,5-dihydro-1H-pyrazole-1-carboximidamide, reference compound], in that order: 18% and 76%.
On the same counts, the results for `N=C(N)N1CCC(c2ccccc2C(F)(F)F)=N1` [Example 13, 3-(2-(Trifluoromethyl)phenyl)-4,5-dihydro-1H-pyrazole-1-carboximidamide] are 34% and 82%.
For the molecule `N=C(N)N1CCC(c2coc3ccccc23)=N1` [Example 14, 3-(Benzofuran-3-yl)-4,5-dihydro-1H-pyrazole-1-carboximidamide], the inhibition at 0.1 µM was 40% and the inhibition at 1 µM was 88%.
On to `COc1ccc(C2=NN(C(=N)N)CC2)cc1` [Example 15, 3-(4-Methoxyphenyl)-4,5-dihydro-1H-pyrazole-1-carboximidamide, reference compound], for which the inhibition at 1 µM turned out to be 13% and the inhibition at 10 µM was 56%.
On the same counts, the results for `COc1ccc(C2=NN(C(=N)N)CC2)cc1OC` [Example 16, 3-(3,4-Dimethoxyphenyl)-4,5-dihydro-1H-pyrazole-1-carboximidamide, reference compound] are 6% and 42%.
Regarding `COc1ccccc1C1=NN(C(=N)N)CC1C` (centres unmarked) [Example 18, 3-(2-Methoxyphenyl)-4-methyl-4,5-dihydro-1H-pyrazole-1-carboximidamide], the inhibition at 1 µM was 89% and the inhibition at 10 µM stood at 101%.
For `CNC(=N)N1CCC(c2ccccc2Cl)=N1` [Example 19, 3-(2-Chlorophenyl)-N-methyl-4,5-dihydro-1H-pyrazole-1-carboximidamide], the inhibition at 0.1 µM is 34% and the inhibition at 1 µM stood at 79%.
On the same counts, the results for `CNC(=N)N1CCC(c2ccccc2O)=N1` [Example 20, 3-(2-Hydroxyphenyl)-N-methyl-4,5-dihydro-1H-pyrazole-1-carboximidamide] are 41% and 89%.
On to `CC1CC(c2cccc3ccccc23)=NN1C(=N)N` (centres unmarked) [Example 23, 5-methyl-3-(naphthalen-1-yl)-4,5-dihydro-1H-pyrazole-1-carboximidamide], for which the inhibition at 0.1 µM is 68% and the inhibition at 1 µM was 97%.
Take `CC1CN(C(=N)N)N=C1c1cccc2ccccc12` (centres unmarked) [Example 24, 4-Methyl-3-(naphthalen-1-yl)-4,5-dihydro-1H-pyrazole-1-carboximidamide]: the inhibition at 0.01 µM is 39%, the inhibition at 0.1 µM turned out to be 86% and the inhibition at 1 µM turned out to be 102%.
`CC1CC(c2ccccc2Cl)=NN1C(=N)N` (centres unmarked) [Example 25, 3-(2-Chlorophenyl)-5-methyl-4,5-dihydro-1H-pyrazole-1-carboximidamide]: the inhibition at 0.1 µM is 54% and the inhibition at 1 µM is 91%.
On the same counts, the results for `CC1CC(c2c(F)cccc2F)=NN1C(=N)N` (centres unmarked) [Example 26, 3-(2,6-Difluorophenyl)-5-methyl-4,5-dihydro-1H-pyrazole-1-carboximidamide] are 7% and 55%.
Turning to `CCC1CC(c2ccccc2Cl)=NN1C(=N)N` (centres unmarked) [Example 27, 3-(2-Chlorophenyl)-5-ethyl-4,5-dihydro-1H-pyrazole-1-carboximidamide], the inhibition at 0.1 µM amounted to 25% and the inhibition at 1 µM turned out to be 76%.
For `Cc1c(C2=NN(C(=N)N)C(C)C2)oc2ccccc12` (centres unmarked) [Example 28, 5-Methyl-3-(3-methylbenzofuran-2-yl)-4,5-dihydro-1H-pyrazole-1-carboximidamide], in that order: 63% and 95%.
On the same counts, the results for `Cc1c(C2=NN(C(=N)N)C(C)C2)sc2ccccc12` (centres unmarked) [Example 29, 5-Methyl-3-(3-methylbenzo[b]thiophen-2-yl)-4,5-dihydro-1H-pyrazole-1-carboximidamide] are 69% and 97%.
For `N=C(N)N1N=C(c2ccccc2Cl)C2CCCC21` (centres unmarked) [Example 30, 3-(2-Chlorophenyl)-4,5,6,6a-tetrahydrocyclopenta[c]pyrazole-1(3aH)-carboximidamide], in that order: 44% and 88%.
For the molecule `N=C(N)N1CCC(c2ccccc2N)=N1` [Example 31, 3-(2-Aminophenyl)-4,5-dihydro-1H-pyrazole-1-carboximidamide], the inhibition at 0.1 µM was found to be 21% and the inhibition at 1 µM stood at 69%.
Consider `CC1(C)CN(C(=N)N)N=C1c1ccccc1O` [Example 32, 3-(2-Hydroxyphenyl)-4,4-dimethyl-4,5-dihydro-1H-pyrazole-1-carboximidamide], for which the inhibition at 0.1 µM was found to be 28% and the inhibition at 1 µM amounted to 79%.
On the same counts, the results for `COc1cccc(Cl)c1C1=NN(C(=N)N)CC1` [Example 33, 3-(2-Chloro-6-methoxyphenyl)-4,5-dihydro-1H-pyrazole-1-carboximidamide] are 5% and 37%.
For `N=C(N)N1CCC(c2c(O)cccc2Cl)=N1` [Example 34, 3-(2-Chloro-6-hydroxyphenyl)-4,5-dihydro-1H-pyrazole-1-carboximidamide], in that order: 23% and 52%.
`CNC(=N)N1CC(C)C(c2ccccc2O)=N1` (centres unmarked) [Example 40, 3-(2-Hydroxyphenyl)-N,4-dimethyl-4,5-dihydro-1H-pyrazole-1-carboximidamide]: the inhibition at 0.001 µM turned out to be 1%, the inhibition at 0.01 µM came out at 42%, the inhibition at 0.1 µM is 92% and the inhibition at 1 µM was determined as 99%.
For `CC1CN(C(=N)NCc2ccccc2)N=C1c1ccccc1O` (centres unmarked) [Example 42, N-Benzyl-3-(2-hydroxyphenyl)-4-methyl-4,5-dihydro-1H-pyrazole-1-carboximidamide], in that order: 49%, 97%, 98% and 99%.
Regarding `CC1CN(C(=N)NO)N=C1c1ccccc1O` (centres unmarked) [Example 44, N-Hydroxy-3-(2-hydroxyphenyl)-4-methyl-4,5-dihydro-1H-pyrazole-1-carboximidamide], the inhibition at 0.001 µM was 12%, the inhibition at 0.01 µM was determined as 30%, the inhibition at 0.1 µM was found to be 85% and the inhibition at 1 µM stood at 94%.
As for `COc1ccc(F)cc1C1=NN(C(=N)N)CC1C` (centres unmarked) [Example 45, 3-(5-Fluoro-2-methoxyphenyl)-4-methyl-4,5-dihydro-1H-pyrazole-1-carboximidamide], the inhibition at 0.01 µM is 26%, the inhibition at 0.1 µM was found to be 54% and the inhibition at 1 µM stood at 86%.
On the same counts, the results for `CC1CN(C(=N)N)N=C1c1cc(F)ccc1O` (centres unmarked) [Example 46, 3-(5-Fluoro-2-hydroxyphenyl)-4-methyl-4,5-dihydro-1H-pyrazole-1-carboximidamide] are 22%, 54% and 89%.

For orientation: inhibition means the drop in the measured response relative to a control, in per cent.
